These compounds were tested against T1, Substance-P receptor (Homo sapiens, UniProt P25103) (assay: Inhibitory concentration for displacement of [3H]-Substance P (SP) in human IM-9 cells). Conditions: not given.
Assay type: cell-based

T1 sequence (P25103 whole entry): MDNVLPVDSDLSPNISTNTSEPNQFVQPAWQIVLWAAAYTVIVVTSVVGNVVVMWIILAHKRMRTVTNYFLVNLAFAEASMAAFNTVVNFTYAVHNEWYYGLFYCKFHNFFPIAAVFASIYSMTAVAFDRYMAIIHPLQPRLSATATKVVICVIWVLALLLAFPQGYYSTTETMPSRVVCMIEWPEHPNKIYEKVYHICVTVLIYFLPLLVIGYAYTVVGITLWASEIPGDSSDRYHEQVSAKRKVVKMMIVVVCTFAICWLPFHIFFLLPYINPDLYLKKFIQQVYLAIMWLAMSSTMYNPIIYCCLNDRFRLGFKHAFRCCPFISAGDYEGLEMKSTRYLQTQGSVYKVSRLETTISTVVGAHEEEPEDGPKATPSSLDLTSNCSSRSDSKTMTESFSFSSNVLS

First: COc1ccccc1CN[C@@H]1C2CCN(CC2)[C@H]1c1cccc(Cl)c1
Second: COc1ccccc1CN[C@H]1C2CCN(CC2)[C@H]1c1cccc(Cl)c1
The IC50 of the first is 12-fold higher: 240 nM for the first, 20 nM for the second.

Compared with `COc1ccccc1CN[C@H]1C2CCN(CC2)[C@H]1c1ccccc1`, `COc1ccccc1CN[C@@H]1C2CCN(CC2)[C@H]1c1ccccc1` is 5-fold higher in IC50: 140 nM for the first, 700 nM for the second.

Compared with `COc1ccc(CN[C@@H]2C3CCN(CC3)[C@@H]2c2cccc(Cl)c2)c(OC)c1` (single isomer, unassigned), `COc1ccc(CN[C@H]2C3CCN(CC3)[C@@H]2c2cccc(Cl)c2)c(OC)c1` is 9-fold higher in IC50: 39 nM for the first, 350 nM for the second. The first is the more potent here.

`COc1cccc([C@H]2[C@@H](NCc3ccccc3OC)C3CCN2CC3)c1` and `Clc1cccc([C@H]2[C@@H](NCc3ccccc3Cl)C3CCN2CC3)c1` are within 1.5-fold of each other in IC50: 160 nM for the first, 230 nM for the second.

These compounds were tested against T1, Substance-P receptor (assay: Tested for Tachykinin receptor 1 antagonistic activity in dog isolated carotid artery(DCA) system at a concentration of 5*10e-6 M). Conditions: Canis lupus familiaris; target entry is the homologue from another species.
Assay type: functional

With `COc1ccc(CN[C@H]2C3CCN(CC3)[C@H]2c2cccc(Cl)c2)c(OC)c1` the pKB was 7.
